# From article PMC2737686 (Virology, 2009)
# Peptide text beside a SMILES is read from it.
# Key:
# [1] = test system: ε RNA; test: Filter-binding assay of peptides, ε RNA; parameters: species or system Duck hepatitis B virus; details: peptide 10 pMol to 0.3 pMol on filter; 32P-labeled ε RNA
# [2] = test system: double-stranded DNA fragment; test: Filter-binding assay of peptides, double-stranded DNA; details: 32P-labeled double-stranded DNA fragment
# [3] = test system: DHBV core gene RNA; test: Filter-binding assay of peptides, DHBV core gene RNA; parameters: species or system Duck hepatitis B virus; details: 32P-labeled DHBV core gene RNA
smiles,measurement,setting,value
CC[C@H](C)[C@H](NC(=O)[C@H](CCCNC(=N)N)NC(=O)[C@H](CC(N)=O)NC(=O)[C@@H]1CCCN1C(=O)[C@H](Cc1c[nH]c2ccccc12)NC(=O)[C@@H](N)CO)C(=O)N[C@H](C(=O)NCC(=O)N[C@@H](CCCCN)C(=O)N[C@@H](CC(C)C)C(=O)N[C@@H](Cc1ccccc1)C(=O)N[C@@H](CC(C)C)C(=O)N[C@H](C(=O)N[C@@H](CC(=O)O)C(=O)N[C@@H](CCCCN)C(=O)N[C@@H](CC(N)=O)C(=O)N[C@@H](CO)C(=O)N[C@@H](CCCNC(=N)N)C(=O)N[C@@H](CC(N)=O)C(=O)N[C@H](C(=O)N[C@@H](CCC(=O)O)C(=O)N[C@@H](CCC(=O)O)C(=O)N[C@@H](C)C(=O)N[C@@H](CCCNC(=N)N)C(=O)N[C@@H](CC(C)C)C(=O)N[C@H](C(=O)N[C@H](C(=O)N[C@@H](CC(=O)O)C(=O)N[C@@H](Cc1ccccc1)C(=O)N[C@@H](CO)C(=O)N[C@@H](CCC(N)=O)C(=O)N[C@@H](Cc1ccccc1)C(=O)N[C@@H](CO)C(=O)N[C@@H](CCCCN)C(=O)NCC(=O)N[C@@H](CCCCN)C(=O)O)C(C)C)C(C)C)[C@@H](C)O)C(C)C)[C@@H](C)O [RT1C] (H-SWPNRITGKLFLVDKNSRNTEEARLVVDFSQFSKGK-OH; N-terminus and C-terminus assumed),"RNA binding to ε, relative (peptide titration)",[1],bound RNA less well than the T3B peptide
same,Binding to double-stranded DNA,[2],able to bind to an irrelevant RNA derived from the DHBV core gene and to a double-stranded DNA fragment
same,Binding to irrelevant DHBV core gene RNA,[3],able to bind to an irrelevant RNA derived from the DHBV core gene
